Tests used:
Venetoclax = compound: CC1(C)CCC(CN2CCN(c3ccc(C(=O)NS(=O)(=O)c4ccc(NCC5CCOCC5)c([N+](=O)[O-])c4)c(Oc4cnc5[nH]ccc5c4)c3)CC2)=C(c2ccc(Cl)cc2)C1 [Venetoclax]; experiment: relative viability (nuclei count vs DMSO), 5 days (fraction); higher = more cells survive
Summary of the method: (§1)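 On vehicle-anchored 1536-well plates, lung cancer cell lines held overnight at 37 °C were pinned with five library-drug doses (not always all listed) spaced by √10. With no medium change over 5 days, they were then fixed, permeabilised and Hoechst-stained in one step and imaged at 4×. MetaXpress counted nuclei, and viability is the median across plates of treated-well over vehicle-well nuclei. Acceptance needed control CV below 25% and at least one doubling.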

Selumetinib = compound: Cn1cnc2c(F)c(Nc3ccc(Br)cc3Cl)c(C(=O)NOCCO)cc21 [Selumetinib]; experiment: as above
Summary of the method: as §1

Row | Cell Line | relative viability (Venetoclax; 0.01 µM) | relative viability (Venetoclax; 0.03162 µM) | relative viability (Venetoclax; 0.1 µM) | relative viability (Venetoclax; 0.3162 µM) | relative viability (Venetoclax; 1 µM) | relative viability (Selumetinib; 0.02 µM) | relative viability (Selumetinib; 0.06325 µM) | relative viability (Selumetinib; 0.2 µM) | relative viability (Selumetinib; 0.6325 µM)
1 | 201T | 0.975 | 0.989 | 0.982 | 0.984 | 0.982 | 0.94 | 0.901 | 0.91 | 0.888
2 | A549 | 0.984 | 0.99 | 0.994 | 0.969 | 0.937 | 0.864 | 0.669 | 0.656 | 0.449
3 | A-427 | 0.892 | 1.14 | 0.901 | 1.08 | 0.998 | 1.1 | 0.994 | 1.03 | 1.05
4 | ABC-1 | 1.11 | 0.981 | 0.974 | 0.938 | 0.897 | 0.885 | 0.757 | 0.875 | 0.841
5 | BEN | 1.03 | 1.09 | 0.887 | 0.999 | 0.941 | 0.934 | 1.02 | 0.863 | 0.938
6 | CAL-12T | 0.944 | 1.05 | 0.923 | 0.956 | 0.886 | 0.88 | 0.794 | 0.781 | 0.737
7 | COR-L23 | 0.979 | 1.03 | 0.967 | 0.999 | 0.911 | 1.09 | 1.03 | 1.07 | 0.99
8 | COR-L 105 | 0.946 | 0.917 | 0.834 | 1.02 | 0.873 | 0.713 | 0.572 | 0.672 | 0.55
9 | Calu-6 | 1.03 | 1.06 | 0.985 | 0.991 | 0.973 | 1.04 | 0.777 | 0.677 | 0.478
10 | ChaGo-K-1 | 1.06 | 1.16 | 0.888 | 1.01 | 0.99 | 0.999 | 0.939 | 0.946 | 0.929
11 | EBC-1 | 0.961 | 1.05 | 0.961 | 0.926 | 0.894 | 0.959 | 0.828 | 0.759 | 0.523
12 | EKVX | 0.998 | 1 | 0.913 | 0.975 | 0.937 | 0.784 | 0.775 | 0.645 | 0.565
13 | EMC-BAC-2 | 0.977 | 1.14 | 0.945 | 1.15 | 0.96 | 1.38 | 1.16 | 1.06 | 1.13
14 | EPLC-272H | 0.874 | 1.09 | 0.934 | 1.03 | 0.888 | 0.875 | 0.774 | 0.614 | 0.648
15 | H3255 | 1 | 1.04 | 0.98 | 1.01 | 0.933 | 0.983 | 0.914 | 0.944 | 0.93
16 | HARA | 0.903 | 1.08 | 0.926 | 1.06 | 0.993 | 0.903 | 0.819 | 0.824 | 0.718
17 | HCC-15 | 0.937 | 1.07 | 0.929 | 0.902 | 0.909 | 0.844 | 0.64 | 0.487 | 0.389
18 | HCC-44 | 0.935 | 0.955 | 0.983 | 0.974 | 0.929 | 1 | 1.01 | 1.04 | 1.1
19 | HCC-78 | 1.1 | 1.21 | 1.01 | 0.959 | 0.942 | 0.924 | 0.853 | 0.802 | 0.91

Row | Cell Line | relative viability (Venetoclax; 0.01 µM) | relative viability (Venetoclax; 0.03162 µM) | relative viability (Venetoclax; 0.1 µM) | relative viability (Venetoclax; 0.3162 µM) | relative viability (Venetoclax; 1 µM) | relative viability (Selumetinib; 0.02 µM) | relative viability (Selumetinib; 0.06325 µM) | relative viability (Selumetinib; 0.2 µM) | relative viability (Selumetinib; 0.6325 µM)
20 | HCC-366 | 0.995 | 1.03 | 0.986 | 1.02 | 0.939 | 0.967 | 0.992 | 0.842 | 0.851
21 | HCC-827 | 1.03 | 1.07 | 0.924 | 1.02 | 1.04 | 1.03 | 1.06 | 0.994 | 0.941
22 | HOP-62 | 1 | 1.05 | 0.989 | 0.973 | 0.927 | 1.02 | 0.897 | 0.886 | 0.549
23 | IA-LM | 0.813 | 1.05 | 0.886 | 0.915 | 0.886 | 0.776 | 0.442 | 0.246 | 0.186
24 | LC-2-ad | 0.942 | 1.01 | 0.978 | 1 | 0.964 | 0.948 | 0.896 | 0.885 | 0.899
25 | LCLC-97TM1 | 0.901 | 1.16 | 0.815 | 0.962 | 0.853 | 0.94 | 0.846 | 0.735 | 0.413
26 | LCLC-103H | 1.06 | 0.999 | 1.04 | 1.01 | 1 | 0.916 | 0.897 | 0.87 | 0.84
27 | LK-2 | 0.947 | 1.11 | 0.929 | 0.938 | 1.02 | 1.08 | 1.05 | 0.88 | 1.04
28 | LOU-NH91 | 0.969 | 1.09 | 0.942 | 0.954 | 0.925 | 0.935 | 0.884 | 0.899 | 0.901
29 | LU99A | 1.02 | 1.01 | 0.84 | 0.987 | 0.994 | 1.01 | 1.05 | 0.91 | 0.912
30 | LXF-289 | 1.17 | 1.02 | 0.944 | 0.956 | 0.883 | 0.948 | 0.932 | 0.835 | 0.778
31 | NCI-H23 | 1 | 1.06 | 0.85 | 1.07 | 0.877 | 1.05 | 0.78 | 0.758 | 0.674
32 | NCI-H322M | 1.05 | 0.982 | 0.899 | 1.06 | 0.938 | 0.83 | 0.681 | 0.651 | 0.624
33 | NCI-H358 | 1.04 | 0.916 | 0.898 | 0.975 | 0.863 | 0.618 | 0.456 | 0.373 | 0.31
34 | NCI-H441 | 0.952 | 1.08 | 0.97 | 0.974 | 0.865 | 1.18 | 0.922 | 0.827 | 0.649
35 | NCI-H460 | 0.98 | 0.965 | 0.941 | 0.989 | 0.923 | 0.963 | 0.801 | 0.823 | 0.545
36 | NCI-H520 | 0.923 | 0.994 | 0.828 | 0.971 | 1 | 1.12 | 0.981 | 1.08 | 1.04
37 | NCI-H522 | 0.955 | 1.02 | 0.976 | 0.988 | 0.982 | 0.896 | 0.957 | 1.02 | 0.927
38 | NCI-H596 | 1.01 | 0.972 | 0.941 | 0.925 | 0.888 | 0.9 | 0.881 | 0.889 | 0.729

Row | Cell Line | relative viability (Venetoclax; 0.01 µM) | relative viability (Venetoclax; 0.03162 µM) | relative viability (Venetoclax; 0.1 µM) | relative viability (Venetoclax; 0.3162 µM) | relative viability (Venetoclax; 1 µM) | relative viability (Selumetinib; 0.02 µM) | relative viability (Selumetinib; 0.06325 µM) | relative viability (Selumetinib; 0.2 µM) | relative viability (Selumetinib; 0.6325 µM)
39 | NCI-H647 | 1.06 | 0.991 | 0.798 | 1 | 0.884 | 0.936 | 0.797 | 0.809 | 0.793
40 | NCI-H650 | 0.934 | 1.05 | 0.876 | 1.1 | 0.855 | 1.1 | 1.09 | 1.39 | 1.26
41 | NCI-H661 | 0.964 | 1.07 | 0.949 | 0.995 | 0.966 | 1.01 | 0.954 | 0.979 | 1
42 | NCI-H727 | 1.17 | 0.993 | 0.848 | 0.953 | 0.827 | 0.5 | 0.418 | 0.352 | 0.385
43 | NCI-H838 | 0.965 | 1.05 | 0.948 | 0.957 | 0.906 | 0.853 | 0.863 | 0.854 | 0.743
44 | NCI-H1299 | 1.02 | 1.03 | 1.01 | 1.01 | 0.949 | 1.04 | 1.03 | 1.02 | 0.889
45 | NCI-H1355 | 0.957 | 0.983 | 1.01 | 1.03 | 0.904 | 0.949 | 0.85 | 0.749 | 0.743
46 | NCI-H1395 | 1.01 | 0.99 | 0.769 | 1.11 | 0.922 | 0.984 | 0.85 | 0.892 | 0.845
47 | NCI-H1437 | 0.971 | 1.04 | 0.989 | 0.957 | 0.949 | 0.911 | 0.817 | 0.703 | 0.53
48 | NCI-H1563 | 0.999 | 0.963 | 0.971 | 1.04 | 1.07 | 0.957 | 0.868 | 0.981 | 0.91
49 | NCI-H1623 | 0.951 | 1.02 | 0.96 | 1.01 | 1.02 | 0.85 | 0.83 | 0.79 | 0.714
50 | NCI-H1648 | 0.661 | 0.966 | 0.94 | 0.822 | 0.791 | 0.729 | 0.961 | 0.904 | 0.797
51 | NCI-H1650 | 0.903 | 1.02 | 0.815 | 1.05 | 0.768 | 0.857 | 0.796 | 0.837 | 0.795
52 | NCI-H1651 | 1.05 | 1.02 | 0.971 | 0.926 | 0.904 | 1.03 | 0.913 | 0.93 | 0.963
53 | NCI-H1666 | 0.915 | 1.02 | 0.966 | 0.933 | 1.01 | 0.917 | 0.94 | 0.878 | 0.875
54 | NCI-H1703 | 0.869 | 0.953 | 0.917 | 0.99 | 0.788 | 0.974 | 0.816 | 0.9 | 0.909
55 | NCI-H1734 | 0.906 | 1.03 | 0.868 | 0.957 | 0.912 | 1 | 0.936 | 0.928 | 0.919
56 | NCI-H1755 | 0.996 | 1.04 | 0.977 | 0.995 | 0.967 | 0.952 | 0.963 | 0.916 | 0.922
57 | NCI-H1792 | 0.892 | 1.06 | 0.918 | 0.98 | 0.856 | 0.901 | 0.728 | 0.827 | 0.689

Source: the supplement of paper PMC10307832
